Data: US11564928B1, “Cannabinoid receptor type 2 (CB2) modulators and uses thereof” (Teon Therapeutics, Inc., priority 2020, dated 2023)
Where two headings read alike, the source gives them in different places.

Assays:
human CB2 receptor [1] = biological target: T1, human CB2 receptor (Homo sapiens (Human), UniProt P34972); assay: CB2 receptor binding assay ([3H]CP-55,940 displacement, HEK-293 membranes)
human recombinant CB1R = human recombinant CB1R (Homo sapiens (Human), UniProt P21554); assay: CB1 receptor binding assay ([3H]CP-55,940 displacement, HEK-293 membranes); details: membranes of HEK-293 cells with human recombinant CB1R, [3H]CP-55,940, read-out: CB1 IC50
Method in brief: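 Displacement of [3H]CP-55,940 was measured on human CB1R- or CB2R-transfected HEK-293 membranes after 120 min at 37 °C, in duplicate, with filtration and scintillation counting. For CB2R, incubation used Tris-HCl 50 mM, MgCl2 5 mM, CaCl2 1 mM, BSA 0.2%, pH 7.4. Ki values were derived from variable-slope IC50 fits using Cheng–Prusoff.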

human CB2 receptor [2] = biological target: T1, human CB2 receptor; assay: CB2 receptor cAMP assay (DiscoverX HitHunter cAMP XS+); format: cell-based
Procedure: cAMP Hunter CHO-K-1 cell lines expressing human CB2 receptor (Eurofins) were expanded from freezer stocks according to standard procedures. Cells were seeded in a total volume of 20 μL into white walled, 384-well microplates and incubated at 37° C. for the appropriate time prior to testing. cAMP modulation in agonist, inverse agonist or antagonist format was determined using the DiscoverX HitHunter cAMP XS+ assay (Eurofins). For agonist determination, cells were incubated with sample in the presence of EC80 forskolin to induce response. Media was aspirated from cells and replaced with 15 μL 2:1 HBSS/10 mM Hepes: cAMP XS+Ab reagent. Intermediate dilution of sample stocks was performed to generate 4× sample in assay buffer containing 4× EC80 forskolin. 5 μL of 4× sample was added to cells and incubated at 37° C. or room temperature for 30 or 60 minutes. Final assay vehicle concentration was 1%. For inverse agonist determination, cells were preincubated with sample in the presence of EC20 forskolin. Media was aspirated from cells and replaced with 15 μL, 2:1 HBSS/10 mM Hepes: cAMP XS+Ab reagent. Intermediate dilution of sample stocks was performed to generate 4× sample in assay buffer containing 4× EC20 forskolin. 5 μL of 4× sample was added to cells and incubated at 37° C. or room temperature for 30 or 60 minutes. Final assay vehicle concentration was 1%. For antagonist determination, cells were pre-incubated with sample followed by agonist challenge at the EC80 concentration. Media was aspirated from cells and replaced with 10 μL 1:1 HBSS/Hepes: cAMP XS+Ab reagent. 5 μL of 4× compound was added to the cells and incubated at 37° C. or room temperature for 30 minutes. 5 μL of 4× EC80 agonist was added to cells and incubated at 37° C. or room temperature for 30 or 60 minutes. EC80 forksolin was included. After appropriate compound incubation, assay signal was generated through incubation with 20 μL cAMP XS+ED/CL lysis cocktail for one hour followed by incubation with 20 μL, cAMP XS+EA reagent for three hours at room temperature. Microplates were read following signal generation with a PerkinElmer Envision instrument for chemiluminescent signal detection. Compound activity was analyzed using CBIS data analysis suite (ChemInnovation, CA). For agonist mode assay, percentage activity is calculated using the following formula: % Activity=100%×(1−(mean RLU of test sample−mean RLU of MAX control)/(mean RLU of vehicle control−mean RLU of MAX control)). For inverse agonist mode assay, percentage activity is calculated using the following formula: % Inverse Agonist Activity=100%×((mean RLU of test sample−mean RLU of EC20 forskolin)/(mean RLU of forskolin positive control−mean RLU of EC20 control)). For antagonist mode assay, percentage inhibition is calculated using the following formula: % Inhibition=100%×(mean RLU of test sample−mean RLU of EC80 control)/(mean RLU of forskolin positive control−mean RLU of EC80 control). Data are analyzed and IC50 is calculated using GraphPad Prism 5 and the model “log(inhibitor) vs. response—Variable slope”.

[3] = membranes of HEK-293 cells with human recombinant CB2R, [3H]CP-55,940, read-out: CB2 IC50
[4] = CHO-K1, read-out: Max Stimulation %
[5] = membranes of HEK-293 cells with human recombinant CB2R, [3H]CP-55,940, class symbols, read-out: CB2 IC50
[6] = cAMP Hunter CHO-K-1 cells expressing human CB2 receptor, read-out: cAMP IC50

Sequence of human recombinant CB1R (P21554 whole entry): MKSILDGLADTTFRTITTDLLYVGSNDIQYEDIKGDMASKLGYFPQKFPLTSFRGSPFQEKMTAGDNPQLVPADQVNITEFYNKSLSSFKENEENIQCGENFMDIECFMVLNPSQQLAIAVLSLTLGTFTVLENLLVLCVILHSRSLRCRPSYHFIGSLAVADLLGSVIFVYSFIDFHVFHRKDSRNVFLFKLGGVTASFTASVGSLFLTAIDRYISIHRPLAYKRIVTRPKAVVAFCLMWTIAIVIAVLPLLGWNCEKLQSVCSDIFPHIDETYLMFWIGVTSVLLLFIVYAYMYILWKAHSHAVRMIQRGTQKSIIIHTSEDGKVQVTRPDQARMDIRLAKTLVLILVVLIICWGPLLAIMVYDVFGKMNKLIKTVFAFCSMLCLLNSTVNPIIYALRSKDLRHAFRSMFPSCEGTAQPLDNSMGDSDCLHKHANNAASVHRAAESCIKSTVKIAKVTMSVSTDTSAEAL
T1 sequence (P34972 whole entry): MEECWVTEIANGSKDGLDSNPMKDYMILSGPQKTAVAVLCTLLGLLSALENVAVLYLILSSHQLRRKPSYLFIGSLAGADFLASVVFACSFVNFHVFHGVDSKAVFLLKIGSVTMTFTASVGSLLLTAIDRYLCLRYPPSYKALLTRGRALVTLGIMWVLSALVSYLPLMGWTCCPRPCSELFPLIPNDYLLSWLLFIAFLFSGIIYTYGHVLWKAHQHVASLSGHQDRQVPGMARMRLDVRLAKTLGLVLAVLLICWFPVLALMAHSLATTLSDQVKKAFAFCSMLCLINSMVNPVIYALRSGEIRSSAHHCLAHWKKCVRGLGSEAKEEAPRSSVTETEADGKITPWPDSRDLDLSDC

Compound | IC50 (human CB2 receptor [1]; [3]) | IC50 (human recombinant CB1R) | IC50 (human CB2 receptor [2]) | Emax (human CB2 receptor [2]; [4]) | IC50 (human CB2 receptor [1]; [5]) | IC50 (human recombinant CB1R; class symbols) | IC50 (human CB2 receptor [2]; [6]) | IC50 (human CB2 receptor [1]) | Emax (human CB2 receptor [2]; CHO-K1, cAMP Hunter CHO-K-1 cells expressing human CB2 receptor, read-out: Max Stimulation %)
COc1ccc(-c2cnc3c(c2)cc(C(=O)NCc2ccc(F)cc2)c(=O)n3CCN2CCOCC2)cc1 [Compound 105, N-(4-fluorobenzyl)-6-(4-methoxyphenyl)-1-(2-morpholinoethyl)-2-oxo-1,2-dihydro-1,8-naphthyridine-3-carboxamide] | 14 nM | > 10000 nM | 28 nM | 116% | – | – | – | – | –
O=C(NC1CC2(CCC2)C1)c1cc2cc(-c3ccc(OC(F)F)cn3)cnc2n(CCN2CCOCC2)c1=O [Compound 47, 6-(5-(difluoromethoxy)pyridin-2-yl)-1-(2-morpholinoethyl)-2-oxo-N-(spiro[3.3]heptan-2-yl)-1,2-dihydro-1,8-naphthyridine-3-carboxamide] | – | > 10000 nM | – | 48% | – | – | – | – | –
COc1ccc(-c2cnc3c(c2)cc(C(=O)NC(C)c2ccc(F)cc2)c(=O)n3CCN2CCOCC2)cc1 (stereo not drawn) [Compound 30, N-(1-(4-fluorophenyl)ethyl)-6-(4-methoxyphenyl)-1-(2-morpholinoethyl)-2-oxo-1,2-dihydro-1,8-naphthyridine-3-carboxamide] | 1.2 nM | > 10000 nM | 17 nM | 89% | – | – | – | – | –
CC1CCC(NC(=O)c2cc3cc(-c4ccc(C#N)cn4)cnc3n(CCN3CCOCC3)c2=O)CC1 (stereo not drawn) [Compound 57, 6-(5-cyanopyridin-2-yl)-N-(4-methylcyclohexyl)-1-(2-morpholinoethyl)-2-oxo-1,2-dihydro-1,8-naphthyridine-3-carboxamide] | – | – | 8 nM | 63% | < 100 nM | > 1000 nM | – | – | –
C[C@@H](NC(=O)c1cc2cc(C3CC3)cnc2n(Cc2ccc(F)cc2)c1=O)c1ccc(F)cc1 [Compound 94, (R)-6-cyclopropyl-1-(4-fluorobenzyl)-N-(1-(4-fluorophenyl)ethyl)-2-oxo-1,2-dihydro-1,8-naphthyridine-3-carboxamide] | 4.1 nM | 3260 nM | 0.8 nM | 55% | – | – | – | – | –
COc1ccc(-c2cnc3c(c2)cc(C(=O)NC2CC4(COC4)C2)c(=O)n3CCN2CCOCC2)cc1 [Compound 31, 6-(4-methoxyphenyl)-1-(2-morpholinoethyl)-2-oxo-N-(2-oxaspiro[3.3]heptan-6-yl)-1,2-dihydro-1,8-naphthyridine-3-carboxamide] | – | – | – | 78% | < 100 nM | > 1000 nM | 127 nM | – | –
N#Cc1ccc(-c2cnc3c(c2)cc(C(=O)NC2CC4(CCC4)C2)c(=O)n3CCN2CCOCC2)nc1 [Compound 36, 6-(5-cyanopyridin-2-yl)-1-(2-morpholinoethyl)-2-oxo-N-(spiro[3.3]heptan-2-yl)-1,2-dihydro-1,8-naphthyridine-3-carboxamide] | 5 nM | > 10000 nM | 13 nM | 89% | – | – | – | – | –
COc1ccc(-c2cnc3c(c2)c(O)c(C(=O)NC2CCC(C)CC2)c(=O)n3CCN2CCOCC2)cc1 (stereo not drawn) [Compound 20, 4-hydroxy-6-(4-methoxyphenyl)-N-(4-methylcyclohexyl)-1-(2-morpholinoethyl)-2-oxo-1,2-dihydro-1,8-naphthyridine-3-carboxamide] | 4.7 nM | > 10000 nM | 7 nM | 93% | – | – | – | – | –
O=C(NC1CC2(CCC2)C1)c1cc2cc(-c3ccc(OC(F)F)cc3)cnc2n(CCN2CCOCC2)c1=O [Compound 52, 6-(4-(difluoromethoxy)phenyl)-1-(2-morpholinoethyl)-2-oxo-N-(spiro[3.3]heptan-2-yl)-1,2-dihydro-1,8-naphthyridine-3-carboxamide] | 10 nM | 962 nM | 1 nM | 77% | – | – | – | – | –
COc1ccc(-c2cnc3c(c2)c(O)c(C(=O)NC24CC(C2)C4)c(=O)n3CCN2CCOCC2)cc1 [Compound 13, N-(bicyclo[1.1.1]pentan-1-yl)-4-hydroxy-6-(4-methoxyphenyl)-1-(2-morpholinoethyl)-2-oxo-1,2-dihydro-1,8-naphthyridine-3-carboxamide] | 17 nM | > 10000 nM | 62 nM | 67% | – | – | – | – | –
O=C(NC1CC2(CCC2)C1)c1c(O)c2cc(-c3ccc(Cl)cc3)cnc2n(CCN2CCOCC2)c1=O [Compound 11, 6-(4-chlorophenyl)-4-hydroxy-1-(2-morpholinoethyl)-2-oxo-N-(spiro[3.3]heptan-2-yl)-1,2-dihydro-1,8-naphthyridine-3-carboxamide] | – | – | 81 nM | 60% | – | > 1000 nM | – | 100 to 999 nM | –
N#Cc1ccc(-c2cnc3c(c2)cc(C(=O)NC24CC(C2)C4)c(=O)n3CCN2CCOCC2)cc1 [Compound 46, N-(bicyclo[1.1.1]pentan-1-yl)-6-(4-cyanophenyl)-1-(2-morpholinoethyl)-2-oxo-1,2-dihydro-1,8-naphthyridine-3-carboxamide] | 6 nM | 8610 nM | 14 nM | 77% | – | – | – | – | –
CC(NC(=O)c1cc2cc(-c3ccc(C#N)cc3)cnc2n(CCN2CCOCC2)c1=O)c1ccc(F)cc1 (stereo not drawn) [Compound 45, 6-(4-cyanophenyl)-N-(1-(4-fluorophenyl)ethyl)-1-(2-morpholinoethyl)-2-oxo-1,2-dihydro-1,8-naphthyridine-3-carboxamide] | – | – | 15 nM | 70% | < 100 nM | > 1000 nM | – | – | –
C[C@@H](NC(=O)c1cc2cc(-c3ccc(OC(F)F)cn3)cnc2n(CCN2CCOCC2)c1=O)c1ccc(F)cc1 [Compound 48, (R)-6-(5-(difluoromethoxy)pyridin-2-yl)-N-(1-(4-fluorophenyl)ethyl)-1-(2-morpholinoethyl)-2-oxo-1,2-dihydro-1,8-naphthyridine-3-carboxamide] | 4.5 nM | > 10000 nM | – | – | – | – | 0.2 nM | – | 66%
CC1CCC(NC(=O)c2cc3cc(Br)cnc3n(CCN3CCOCC3)c2=O)CC1 (stereo not drawn) [Compound 61, 6-bromo-N-(4-methylcyclohexyl)-1-(2-morpholinoethyl)-2-oxo-1,2-dihydro-1,8-naphthyridine-3-carboxamide] | – | – | 13 nM | 83% | < 100 nM | > 1000 nM | – | – | –
CC1CCC(NC(=O)c2c(O)c3cc(-c4ccc5c(c4)OCCO5)cnc3n(CCN3CCOCC3)c2=O)CC1 (stereo not drawn) [Compound 19, 6-(2,3-dihydrobenzo[b][1,4]dioxin-6-yl)-4-hydroxy-N-(4-methylcyclohexyl)-1-(2-morpholinoethyl)-2-oxo-1,2-dihydro-1,8-naphthyridine-3-carboxamide] | 20 nM | > 10000 nM | 43 nM | 81% | – | – | – | – | –
CC1CCC(NC(=O)c2c(O)c3cc(-c4ccc(C#N)cc4)cnc3n(CCN3CCOCC3)c2=O)CC1 (stereo not drawn) [Compound 16, 6-(4-cyanophenyl)-4-hydroxy-N-(4-methylcyclohexyl)-1-(2-morpholinoethyl)-2-oxo-1,2-dihydro-1,8-naphthyridine-3-carboxamide] | – | > 10000 nM | – | 30% | – | – | – | – | –
CC(NC(=O)c1cc2cc(-c3ccc(C#N)cn3)cnc2n(CCN2CCOCC2)c1=O)c1ccc(F)cc1 (stereo not drawn) [Compound 58, 6-(5-cyanopyridin-2-yl)-N-(1-(4-fluorophenyl)ethyl)-1-(2-morpholinoethyl)-2-oxo-1,2-dihydro-1,8-naphthyridine-3-carboxamide] | – | > 10000 nM | – | 77% | – | – | – | – | –
